Reference: patent publication US4871756A, “Leukotriene antagonists” (Merck Frosst Canada, Inc., priority 1987, dated 1989)

Test system: Leukotriene D4 (ileum contraction induced by LTD4)
Experiment: Guinea Pig Ileum Assay for Evaluation of Antagonists of Leukotriene D4 (Inhibition of Ileum Contraction Induced by LTD4)
Assay type: cell-based, guinea pig (male Hartley strain)
Settings: Cavia porcellus, LTD4 0.3 ng/ml, 30 second pretreatment; for inhibition at 10 µg/mL: 10 μg/ml
Experimental: The terminal ileum from male Hartley strain guinea pigs (300-500 g) was removed and suspended under 1 g resting tension in Tyrode's solution containing 1.0×10^-6 M atropine sulfate and 1.6×10^-6 M timolol (beta blocker). After a 15-30 minute stabilization period, a standard dose of leukotriene D4 (0.3 ng/ml--final bath concentration)was added repeatedly until consistent and reproducible contractile responses were obtained. Isometric contractions to leukotriene D4 were recorded for 60 seconds and then the tissue was washed and allowed to recove to baseline (2 minutes) before the next dose of leukotriene D4 was added. For testing antagonist compounds, a 30 second pretreatment period was used and the percent inhibition of the control contraction to leukotriene D4 was recorded. A similar procedure was employed for testing active compounds against contractions to a standard dose of histamine (50 ng/ml--final bath concentration).

**Q.** With `CCCc1c(OCC2(Sc3ccc(C(=O)CCC(=O)O)cc3)CCCCC2O)ccc(C(C)=O)c1O` [L-649,107] as the molecule, how does the inhibition at 10 µg/mL read?
**A.** 12%

**Q.** What does the source list for `CCCc1c(OCC2(O)CCCCC2Sc2ccc(C(=O)CCC(=O)O)cc2)ccc(C(C)=O)c1O` [L-649,106]?
**A.** inhibition at 1 µg/mL (1 μg/ml): 23%; inhibition at 10 µg/mL: 80%
